Measured values published in US20260297542A1, “HERBICIDE RESISTANT PLANTS” (SYNGENTA CROP PROTECTION AG, priority 2023, published 2026).
Residue numbers refer to the chain shown, from its start. Read-outs that look alike come from different tables or passages of the source.

How the values were obtained:
[1] = target: T1, His-TEV-AtPPO1 ΔcTP V002 (SEQ ID NO: 373) (Arabidopsis thaliana, UniProt P55826, L479M/S305L/Y426V); assay: PPO fluorescence IC50 assay, partially purified enzyme; format: biochemical
T1 construct: with cTPs removed; made in house; host or cells: E. coli BL21 (DE3), His GraviTrap, partially purified
T1 sequence (P55826 with tags, fused parts or gaps S305L/Y426V/L479M): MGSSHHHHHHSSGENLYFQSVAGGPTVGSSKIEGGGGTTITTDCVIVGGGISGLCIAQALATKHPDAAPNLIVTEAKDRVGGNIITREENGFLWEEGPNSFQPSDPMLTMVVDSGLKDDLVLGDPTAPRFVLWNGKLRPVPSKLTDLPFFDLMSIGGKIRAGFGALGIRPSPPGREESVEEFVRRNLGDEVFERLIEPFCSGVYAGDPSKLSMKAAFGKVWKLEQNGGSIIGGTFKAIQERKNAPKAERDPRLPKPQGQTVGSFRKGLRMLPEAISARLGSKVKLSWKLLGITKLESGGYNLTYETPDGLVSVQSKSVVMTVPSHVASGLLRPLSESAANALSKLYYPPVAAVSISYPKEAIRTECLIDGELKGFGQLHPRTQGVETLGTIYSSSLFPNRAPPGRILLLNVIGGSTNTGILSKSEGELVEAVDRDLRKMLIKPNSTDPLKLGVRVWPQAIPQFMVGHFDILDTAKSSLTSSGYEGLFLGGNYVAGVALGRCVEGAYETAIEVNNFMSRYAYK
Text: (§1) A pET24 plasmid containing a DNA sequence encoding variants of AtPPO1 derived from Arabidopsis thaliana with cTPs removed and both a 6×His tag and TEV protease cleavage tag added at the N-terminus, codon-optimised for expression in E. coli, and under control of a T7 promoter, was synthesised by Twist Bioscience. The following variants were synthesised: WT AtPPO1 (SEQ ID NO: 370), AtPPO1 L479M (SEQ ID NO: 371), AtPPO1 L479N (SEQ ID NO: 372), AtPPO1 S305L Y426V (SEQ ID NO: 374) and AtPPO1 S305L Y426V L479M (SEQ ID NO: 373). This plasmid was expressed in E. coli BL21 (DE3) with 50 μg/mL kanamycin selection. 10 mL of overnight cultures grown at 37° C. were used to inoculate 1 L AIM (AIM-Terrific Broth Base including Trace elements, Formedium) in 2 L shake flasks. Cultures were grown at 37° C., 200 rpm for 3 hours and then overnight at 26° C. Cells were harvested centrifugation. 5-15 g of cell pellet was lysed in and resuspended in ratio of 1:1.5 in lysis buffer (20 mM Tris pH8, 500 mM sodium chloride, 10% glycerol, 1× complete Protease EDTA-free Inhibitor Tablet (Roche), 10 mM imidazole). The resuspension was sonicated at 75% using 10 cycles of 30 seconds, 40 seconds off. After sonication Triton X-100 was added to the lysates at a final concentration of 0.5%. The lysates were centrifuged at 20,000 rpm for 25 min at 4° C. Cleared lysates were loaded on His GraviTrap (Cytiva) columns, washed with 20 mL of lysis buffer and eluted in elution buffer (20 mM Tris pH8, 500 mM sodium chloride, 10% glycerol, 200 mM imidazole, 0.03% (v/v) Triton X-100). The eluate was desalted on a PD10 column and 2.5-3.2 mL was collected. Protein concentration was measured and calculated using the absorbance at 280 nm. Extracts were diluted 1 in 4 and 10 uL was analysed by SDS PAGE.
(§2) Partially purified Protoporphyrinogen Oxidase enzymes were assayed for activity using fluorescence adapted from the method of Shepherd & Dailey (Anal Biochem. 2005 344(1) 115-121). The assay was performed in black 384 well plates with a clear bottom and the total volume of the reaction mixture was 91 ul. The final assay mixture contained 100 mM K2HPO4 pH7.2, 1 mM Na2EDTA, 5 mM DTT, 20% glycerol (v/v), 0.05% Tween 20 (v/v), 1.1% DMSO (v/v), 1 uM protoporphyrinogen IX and 1.5 nM enzyme. Compounds were dissolved in DMSO at 1 mM and a 4-fold serial dilution carried out to give 8 rates. 1 ul was added to the assay mixture. This gave final compound concentrations of 11, 2.7, 0.69, 0.17, 0.04, 0.01, 0.002, 0.0007 uM. Enzyme and inhibitor were preincubated for 5 minutes prior to starting the reaction with the addition of the substrate. […] IC50s were calculated using GraphPad Prism 7.05 nonlinear regression (Table 6). Each compound was tested in duplicate.

[2] = target: T2, His-TEV-AtPP01 ΔcTP L479M (SEQ ID NO: 371) (Arabidopsis thaliana, UniProt P55826, L479M); assay: as above; format: biochemical
T2 construct: with cTPs removed; made in house; host or cells: E. coli BL21 (DE3), His GraviTrap, partially purified
T2 sequence (P55826 with tags, fused parts or gaps L479M): T1 sequence (P55826 with tags, fused parts or gaps S305L/Y426V/L479M) with L290S, V411Y
Text: as §1, §2

[3] = role: inhibitor, 1 uM protoporphyrinogen IX, <1.0 is below detection limit of assay

SMILES | IC50 [1] | IC50 [2] | IC50 [1, 3] | IC50 [2, 3]
C#CCN(C)c1c(C#N)cnn1-c1nn2c(c1Cl)CCCC2 [Pyraclonil] | 5560 nM | 2.3 nM | – | –
CCOC(=O)COc1cc(-c2nn(C)c(OC(F)F)c2Cl)c(F)cc1Cl [Pyraflufen-ethyl, pyraflufen-ethyl] | 24.2 nM | 0.7 nM | – | –
C#CCN1C(=O)COc2cc(F)c(N3C(=O)C4=C(CCCC4)C3=O)cc21 [Flumioxazin, flumioxazin] | 187 nM | 1 nM | – | –
CC(C)Oc1cc(-n2nc(C(C)(C)C)oc2=O)c(Cl)cc1Cl [Oxadiazaon] | 5620 nM | 11.2 nM | – | –
CCOC(=O)C1(C)CC(c2cc(-n3c(=O)cc(C(F)(F)F)n(C)c3=O)c(F)cc2Cl)=NO1 (centres unmarked) [Herbicide C, 3-(2-chloro-4-fluoro-5-(3-methyl-2,6-dioxo-4-trifluoromethyl-3,6-dihydropyrimidin-1(2H)-yl)phenyl)-5-methyl-4,5-dihydroisoxazole-5-carboxylic acid ethyl ester] | 121 nM | 0.8 nM | – | –
C#CCN1C(=O)C(F)(F)Oc2cc(F)c(-n3c(=O)n(C)c(=S)n(C)c3=O)cc21 [Herbicide B, trifludimoxazin] | 2.1 nM | 0.8 nM | – | –
C#CCOc1cc(-n2nc3n(c2=O)CCCC3)c(Cl)cc1Cl [Azafenadin] | 149 nM | 0.7 nM | – | –
CCOC(=O)[C@]1(C)CC(c2cc(-n3c(=O)n(C)c(=S)n(C)c3=O)c(F)cc2Cl)=NO1 [Herbicide D, ethyl (5S)-3-[2-chloro-5-(3,5-dimethyl-2,6-dioxo-4-thioxo-1,3,5-triazinan-1-yl)-4-fluoro-phenyl]-5-methyl-4H-isoxazole-5-carboxylate] | 335 nM | 0.6 nM | – | –
CS(=O)(=O)NC(=O)c1cc(Oc2ccc(C(F)(F)F)cc2Cl)ccc1[N+](=O)[O-] [Fomesafen, fomesafen] | 0.5 nM | 1.2 nM | – | –
C=CCOC(=O)C(C)(C)OC(=O)c1cc(-n2c(=O)cc(C(F)(F)F)n(C)c2=O)ccc1Cl [Butafenacil, butafenacil] | 12.5 nM | 0.7 nM | – | –
COC(=O)C(C)ON=Cc1cc(-n2c(=O)cc(C(F)(F)F)n(C)c2=O)c(F)cc1Cl (centres unmarked) [Flufenoximacil, flufenoximacil] | – | – | 863 nM | 0.7 nM
CCOC(=O)COc1ncccc1Oc1cc(-n2c(=O)cc(C(F)(F)F)n(C)c2=O)c(F)cc1Cl [Herbicide A, epyrifenacil] | 447 nM | 0.8 nM | – | –
CC(C)N(C)S(=O)(=O)NC(=O)c1cc(-n2c(=O)cc(C(F)(F)F)n(C)c2=O)c(F)cc1Cl [Herbicide E, saflufenacil] | 998 nM | 2.4 nM | – | –
